Among the data in patent US10030016B2 (Sunesis Pharmaceuticals, Inc., priority 2009, dated 2018) are EC50 and IC50 values, retold here.

Assay [1] concerns phospho-akt (Thr308) in PC-3 cells. Put plainly: Inhibition of phospho-akt (Thr308) in PC-3 cells, MSD phospho-akt 308 ELISA kit. In kind it is cell-based. The note with it: Homo sapiens. In a few lines:
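Serum-free 2 h compound exposure of overnight-seeded PC-3 cells, threefold dilution series; lysates analysed on blocked MSD plates (3% BSA) for Thr308-phosphorylated Akt, normalised between DMSO and 5 μM wortmannin wells.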

For assay [2], the target named is PDK1 (Homo sapiens (Human), UniProt O15530). Put plainly: PDK1 kinase assay (coupled PDK1/AKT/FAM-crosstide assay, IMAP fluorescence polarization). In kind it is biochemical. In a few lines: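 Coupled cascade: 0.75 nM PDK1 (51-359) → 10 nM AKT2 (140-467-PIFtide) → 100 nM FAM-crosstide. ATP 40 μM, 25° C, 30 min. IMAP FP (ex 485/em 530), 2 h binding. ΔmP vs conc, 4-param fit.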
Chain of PDK1 (O15530 51-359): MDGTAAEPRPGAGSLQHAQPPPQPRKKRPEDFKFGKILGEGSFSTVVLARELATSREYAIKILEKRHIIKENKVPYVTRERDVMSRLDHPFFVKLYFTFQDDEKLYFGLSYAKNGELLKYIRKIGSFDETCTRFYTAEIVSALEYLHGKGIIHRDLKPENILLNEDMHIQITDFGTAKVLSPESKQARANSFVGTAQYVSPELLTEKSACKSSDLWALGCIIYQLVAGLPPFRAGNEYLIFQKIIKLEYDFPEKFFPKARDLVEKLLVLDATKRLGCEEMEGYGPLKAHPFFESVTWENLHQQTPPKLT

The mark [3] stands for this setting: inhibition of P308 Akt in PC-3 cells, 2 hours, no serum, MSD, read-out: EC50.
[4] abbreviates: inhibition of phospo-PDK1 in vitro.
The mark [5] stands for this setting: inhibition of P308 Akt in PC-3 cells using MSD, 2 hours, no serum, read-out: EC50.

Structures can show the parent of a compound that is named as a salt. Where two headings read alike, the source gives them in different places.

Usually EC50 stands for the concentration at which the effect is half-maximal. Broadly, the IC50 is the concentration that gives 50% inhibition. High values mean weaker potency, low ones greater potency. Regarding `O=C(NCc1ccc(F)c(F)c1)c1cccnc1N[C@@H](COc1ccc2[nH]c(=O)[nH]c2c1)c1ccccc1` [Example 16.1, (R)-N-(3,4-difluorobenzyl)-2-(2-(2-oxo-2,3-dihydro-1H-benzo[d]imidazol-5-yloxy)-1-phenylethylamino)nicotinamide], the EC50 in assay [1] (setting [3]) was under 1000 nM. For the same compound, the IC50 in assay [2] (setting [4]) was under 100 nM.

In the case of `C[C@H](NC(=O)c1cc(I)cnc1NCc1ccc(-c2ccc3ncnc(N)c3c2)s1)c1ccc(F)cc1` [Example 7.21.2, 2-({[5-(4-aminoquinazolin-6-yl)thiophen-2-yl]methyl}amino)-N-[(1S)-1-(4-fluorophenyl)ethyl]-5-iodopyridine-3-carboxamide], the EC50 in assay [1] (setting [3]) was under 1000 nM. This compound had a concentration for half-maximal inhibition (IC50) in assay [2] (setting [4]) of 100 to 1000 nM.

Consider `Nc1ncnc2ccc(-c3ccc(CNc4nccnc4C(=O)Nc4ccc(F)c(F)c4)s3)cc12` [Example 3.72, 3-({[5-(4-aminoquinazolin-6-yl)thiophen-2-yl]methyl}amino)-N-(3,4-difluorophenyl)pyrazine-2-carboxamide (TFA salt)], for which, in assay [1] (setting [3]), the concentration for a half-maximal effect (EC50) is over 10000 nM. For the same compound, the IC50 in assay [2] (setting [4]) is over 5000 nM.

Consider `C[C@H](NC(=O)c1cccnc1NCc1ccc(-c2cnc3[nH]c(=O)[nH]c3c2)cc1)c1ccc(F)c(F)c1` [Example 366, (S)-N-(1-(3,4-difluorophenyl)ethyl)-2-(4-(2-oxo-2,3-dihydro-1H-imidazo[4,5-b]pyridin-6-yl)benzylamino) nicotinamide], for which, in assay [1] (setting [5]), the EC50 was under 1000 nM. Also, the IC50 in assay [2] (inhibition of PDK1 in vitro) is under 100 nM.

For the compound `O=C(NCc1ccc(F)cc1)c1cccnc1NCc1ccc(-c2cnc3[nH]ncc3c2)cc1` [Example 393, 2-(4-(1H-pyrazolo[3,4-b]pyridin-5-yl)benzylamino)-N-(4-fluorobenzyl) nicotinamide], in assay [1] (setting [5]), the EC50 was in the range of 1000 to 10000 nM. In assay [2] (inhibition of PDK1 in vitro), this compound yielded an IC50 of under 100 nM.

Take `Nc1ncnc2ccc(-c3ccc(CNc4ncccc4C(=O)NCc4ccncc4)s3)cc12` [Example 3.38, 2-({[5-(4-aminoquinazolin-6-yl)thiophen-2-yl]methyl}amino)-N-(pyridin-4-ylmethyl) pyridine-3-carboxamide (TFA salt)]: in assay [1] (setting [3]), the EC50 is over 10000 nM. The IC50 in assay [2] (setting [4]) lay in the range of 1000 to 5000 nM.

Regarding `C[C@H](NC(=O)c1cc(C#N)cnc1NCc1ccc(-c2ccc3ncc4ncn(C)c4c3c2)s1)c1ccc(F)cc1` [Example 2.28, (S)-5-cyano-N-(1-(4-fluorophenyl)ethyl)-2-(((5-(1-methyl-1H-imidazo[4,5-c]quinolin-8-yl)thiophen-2-yl)methyl)amino) nicotinamide], the concentration for a half-maximal effect (EC50) in assay [1] (setting [3]) was under 1000 nM. Besides, the 50% inhibitory concentration (IC50) in assay [2] (setting [4]) is under 100 nM.

For the compound `Nc1ncnc2ccc(-c3ccc(CNc4ncc(I)cc4C(=O)NCc4ccc(F)c(F)c4)s3)cc12` [Ex. 8.3, 2-{[5-(4-amino-quinazolin-6-yl)-thiophen-2-ylmethyl]-amino}-N-(3,4-difluoro-benzyl)-5-iodo-nicotinamide], in assay [1] (setting [3]), the EC50 was under 1000 nM. The same compound showed an IC50 in assay [2] (setting [4]) of under 100 nM.

With `Cn1c(-c2ccc(CNc3ncc(C(F)(F)F)cc3C(=O)Nc3ccc(F)cc3)cc2)cc2c(N)ncnc21` [Example 337, 2-(4-(4-amino-7-methyl-7H-pyrrolo[2,3-d]pyrimidin-6-yl)-benzylamino)-N-(4-fluorophenyl)-5-(trifluoromethyl)nicotinamide], the EC50 in assay [1] (setting [5]) fell in the range of 1000 to 10000 nM. The compound also showed an IC50 in assay [2] (inhibition of PDK1 in vitro) of under 100 nM.

Take `Cn1cnc2cnc3ccc(-c4ccc(CNc5ncccc5C(=O)NCc5ccc(F)c(F)c5)s4)cc3c21` [Example 2.24]: the EC50 in assay [1] (setting [3]) was under 1000 nM. In assay [2] (setting [4]), this compound had a half-maximal inhibitory concentration (IC50) of under 100 nM.

As to `CC(C)(N)COc1nc(-c2ccc(CNc3ncc(C(F)(F)F)cc3C(=O)Nc3ccc(F)cc3)cc2)cnc1N` [Example 200, 2-{4-[5-Amino-6-(2-amino-2-methyl-propoxy)-pyrazin-2-yl]-benzylamino}-N-(4-fluoro-phenyl)-5-trifluoromethyl-nicotinamide], the EC50 in assay [1] (setting [5]) is 1000 to 10000 nM. The compound also displayed an IC50 in assay [2] (inhibition of PDK1 in vitro) of under 100 nM.

In the case of `CC(C)Oc1cc(CNc2ncccc2C(=O)NCc2ccc(F)c(F)c2)cc(-c2c[nH]c3ncccc23)c1` [Example 5.7, N-(3,4-difluorobenzyl)-2-(3-isopropoxy-5-(1H-pyrrolo[2,3-b]pyridin-3-yl)benzylamino)nicotinamide], in assay [1] (setting [3]), the EC50 fell in the range of 1000 to 10000 nM. Also, in assay [2] (setting [4]), the IC50 was under 100 nM.

As to `Nc1ncnc2ccc(-c3ccc(CNc4ncccc4C(=O)Nc4cc(F)c(F)c(F)c4)s3)cc12` [Example 3.40, 2-({[5-(4-aminoquinazolin-6-yl)thiophen-2-yl]methyl}amino)-N-(3,4,5-trifluorophenyl) pyridine-3-carboxamide (TFA salt)], the EC50 in assay [1] (setting [3]) is 1000 to 10000 nM. Also, in assay [2] (setting [4]), the half-maximal inhibitory concentration (IC50) lay within 100 to 1000 nM.

For the compound `C[C@H](NC(=O)c1cc(F)cnc1NCc1ccc(-c2ccc3ncnc(N)c3c2)s1)c1ccc(F)c(F)c1` [Example 7.13, 2-({[5-(4-aminoquinazolin-6-yl)thiophen-2-yl]methyl}amino)-N-[(1S)-1-(3,4-difluorophenyl)ethyl]-5-fluoropyridine-3-carboxamide], the EC50 in assay [1] (setting [3]) is under 1000 nM. Moreover, the IC50 in assay [2] (setting [4]) was in the range of 100 to 1000 nM.

`Cn1nc(-c2ccc(CNc3ncc(C(F)(F)F)cc3C(=O)NCc3ccc(F)c(F)c3)cc2)c2c(N)ncnc21` [Example 332, 2-(4-(4-amino-1-methyl-1H-pyrazolo[3,4-d]pyrimidin-3-yl)-benzylamino)-N-(3,4-difluorobenzyl)-5-(trifluoromethyl)nicotinamide]: the EC50 in assay [1] (setting [5]) fell in the range of 1000 to 10000 nM. The same compound registered an IC50 in assay [2] (inhibition of PDK1 in vitro) of under 100 nM.

Regarding `Nc1n[nH]c2ncc(-c3ccc(CNc4ncc(C(F)(F)F)nc4C(=O)Nc4ccc(F)cc4)cc3)cc12` [Example 39, 3-(4-(3-amino-1H-pyrazolo[3,4-b]pyridin-5-yl)benzylamino)-N-(4-fluorophenyl)-6-(trifluoromethyl)pyrazine-2-carboxamide], the EC50 in assay [1] (setting [3]) was under 1000 nM. Also, the IC50 in assay [2] (setting [4]) was under 100 nM.

Consider `C[C@H](NC(=O)c1cc(C#N)cnc1NCc1ccc(-c2cnc3[nH]ncc3c2)nc1)c1ccc(F)cc1` [Example 65, 5-Cyano-N-[(S)-1-(4-fluoro-phenyl)-ethyl]-2-{[6-(1H-pyrazolo[3,4-b]pyridin-5-yl)-pyridin-3-ylmethyl]-amino}-nicotinamide], for which, in assay [1] (setting [5]), the EC50 is under 1000 nM. The IC50 in assay [2] (inhibition of PDK1 in vitro) is under 100 nM.

Turning to `Nc1n[nH]c2ncc(-c3ccc(CNc4ncc(C(F)(F)F)cc4C(=O)Nc4ccncn4)cc3)cc12` [Example 303, 2-(4-(3-amino-1H-pyrazolo [3,4-b]pyridin-5-yl)benzylamino)-N-(pyrimidin-4-yl)-5-(trifluoromethyl)nicotinamide], the half-maximal effective concentration (EC50) in assay [1] (setting [5]) was in the range of 1000 to 10000 nM. The IC50 in assay [2] (inhibition of PDK1 in vitro) was under 100 nM.

With `C[C@H](NC(=O)c1cc(S(N)(=O)=O)cnc1NCc1ccc(-c2ccc3ncnc(N)c3c2)s1)c1ccc(F)c(F)c1` [Example 8.7.3, 2-({[5-(4-aminoquinazolin-6-yl)thiophen-2-yl]methyl}amino)-N-[(1S)-1-(3,4-difluorophenyl)ethyl]-5-sulfamoylpyridine-3-carboxamide], the EC50 in assay [1] (setting [3]) was in the range of 1000 to 10000 nM. For the same compound, the IC50 in assay [2] (setting [4]) is under 100 nM.

As for `CNC(=O)c1cc(S(=O)(=O)NCCN)cnc1NCc1ccc(-c2ccc3ncnc(N)c3c2)s1` [Example 344], the EC50 in assay [1] (setting [5]) is over 10000 nM. Besides, the half-inhibitory concentration (IC50) in assay [2] (inhibition of PDK1 in vitro) was over 5000 nM.

Take `CC(N)CCc1nc(-c2ccc(CNc3ncc(C#N)cc3C(=O)N[C@@H](C)c3ccc(F)cc3)cc2)cnc1N` (stereo partly drawn) [Example 85, 2-{4-[5-Amino-6-(3-amino-butyl)-pyrazin-2-yl]-benzylamino}-5-cyano-N-[(S)-1-(4-fluoro-phenyl)-ethyl]-nicotinamide]: the EC50 in assay [1] (setting [5]) is under 1000 nM. Besides, the IC50 in assay [2] (inhibition of PDK1 in vitro) is under 100 nM.

Consider `CNc1ncc2cc(O[C@H](C)CNc3ncc(C#N)nc3C(=O)N[C@@H](C)c3ccc(F)c(F)c3)ccc2n1` [Example 252, 6-cyano-N-((S)-1-(3,4-difluorophenyl)ethyl)-3-((R)-2-(2-(methylamino)quinazolin-6-yloxy)propylamino)pyrazine-2-carboxamide], for which the EC50 in assay [1] (PC-3, 2 h, inhibition of P308 Akt in PC-3 cells using MSD, 2 hours, no serum, read-out: EC50) lay within 1000 to 10000 nM. Besides, the IC50 in assay [2] (inhibition of PDK1 in vitro) was 100 to 1000 nM.

As to `C[C@H](NC(=O)c1nc(C#N)cnc1NCc1ccc(-c2cnc3[nH]nc(N)c3n2)cc1)c1ccc(F)c(F)c1` [Example 182, 3-[4-(3-Amino-1H-pyrazolo[3,4-b]pyrazin-5-yl)-benzylamino]-6-cyano-pyrazine-2-carboxylic acid [(S)-1-(3,4-difluoro-phenyl)-ethyl]-amide], in assay [1] (PC-3, 2 h), the EC50 was under 1000 nM. In assay [2] (inhibition of PDK1 in vitro), this compound came in with an IC50 of under 100 nM.

Take `Cn1cnc2cnc(-c3ccc(CNc4nc5ccccc5cc4C(=O)NCc4ccc(F)c(F)c4)s3)cc21` [Example 8.14.2, N-(3,4-difluorobenzyl)-2-({[5-(1-methyl-1H-imidazo [4,5-c]pyridin-6-yl)thiophen-2-yl]methyl}amino)quinoline-3-carboxamide]: in assay [1] (setting [3]), the EC50 was over 10000 nM. The concentration for half-maximal inhibition (IC50) in assay [2] (setting [4]) was over 5000 nM.

As for `Nc1n[nH]c2ncc(-c3ccc(CNc4ncc(C(F)(F)F)cc4C(=O)Nc4ccccc4)cc3)cc12` [Example 292, 2-(4-(3-amino-1H-pyrazolo [3,4-b]pyridin-5-yl)benzylamino)-N-phenyl-5-(trifluoromethyl)nicotinamide], the EC50 in assay [1] (setting [5]) was under 1000 nM. In assay [2] (inhibition of PDK1 in vitro), the IC50 is under 100 nM.
